Measurements: ChEMBL document CHEMBL1765067, “Absolute configuration of (-)-gambogic acid, an antitumor agent” (2011)

Tested on: HT-29
Test: Anticancer activity aganist human HT-29 cells
Format: functional
Conditions: read-out: ED50 (the source's name)

SMILES | EC50
CC(C)=CCc1c2c(c(O)c3c1O[C@]14C(=C[C@@H]5C[C@H]1C(C)(C)O[C@@]4(C/C=C(/C)C(=O)O)C5=O)C3=O)C=CC(C)(C)O2 | 360 nM
CC(C)=CCC[C@]1(C)C=Cc2c(O)c3c(c(CC=C(C)C)c2O1)O[C@]12C(=C[C@@H]4C[C@H]1C(C)(C)O[C@@]2(C/C=C(/C)C(=O)O)C4=O)C3=O [GAMBOGIC ACID] | 480 nM
CC(=O)O[C@H]1C(=O)[C@@]2(C)[C@H]([C@H](OC(=O)c3ccccc3)[C@]3(O)C[C@H](OC(=O)[C@H](O)[C@@H](NC(=O)c4ccccc4)c4ccccc4)C(C)=C1C3(C)C)[C@]1(OC(C)=O)CO[C@@H]1C[C@@H]2O [PACLITAXEL] | 0.1 nM
